Test results: ChEMBL document CHEMBL5365500, “Development and Antibacterial Properties of 4-[4-(Anilinomethyl)-3-phenylpyrazol-1-yl]benzoic Acid Derivatives as Fatty Acid Biosynthesis Inhibitors” (J Med Chem, 2023)
In brackets after ≈: the same amount, converted by molar mass.

Key:
Assay type in all cases: functional
Details in all cases: time 20-24 hrs
Staphylococcus aureus [1] = assay: Antimicrobial activity against Staphylococcus aureus ATCC 25923 assessed as inhibition of visible growth measured after 20 to 24 hrs incubation by CLSI method
Staphylococcus aureus [2] = assay: Antimicrobial activity against antibiotic-resistant Staphylococcus aureus ATCC BAA-2312 assessed as inhibition of visible growth measured after 20 to 24 hrs incubation by CLSI method
Staphylococcus aureus [3] = assay: Antimicrobial activity against antibiotic-resistant Staphylococcus aureus ATCC 33591 assessed as inhibition of visible growth measured after 20 to 24 hrs incubation by CLSI method
Staphylococcus aureus [4] = assay: Antimicrobial activity against antibiotic-resistant Staphylococcus aureus ATCC 33592 assessed as inhibition of visible growth measured after 20 to 24 hrs incubation by CLSI method
Staphylococcus aureus [5] = assay: Antimicrobial activity against antibiotic-resistant Staphylococcus aureus ATCC 700699 assessed as inhibition of visible growth measured after 20 to 24 hrs incubation by CLSI method
[6] = system: Staphylococcus epidermidis; assay: Antimicrobial activity against antibiotic-resistant Staphylococcus epidermidis ATCC 700296 assessed as inhibition of visible growth measured after 20 to 24 hrs incubation by CLSI method
Enterococcus faecalis [7] = assay: Antimicrobial activity against antibiotic-susceptible Enterococcus faecalis ATCC 29212 assessed as inhibition of visible growth measured after 20 to 24 hrs incubation by CLSI method
Enterococcus faecalis [8] = assay: Antimicrobial activity against antibiotic-resistant Enterococcus faecalis ATCC 51299 assessed as inhibition of visible growth measured after 20 to 24 hrs incubation by CLSI method
Enterococcus faecium = assay: Antimicrobial activity against antibiotic-resistant Enterococcus faecium ATCC 700221 assessed as inhibition of visible growth measured after 20 to 24 hrs incubation by CLSI method
Bacillus subtilis = assay: Antimicrobial activity against antibiotic-resistant Bacillus subtilis ATCC 6623 assessed as inhibition of visible growth measured after 20 to 24 hrs incubation by CLSI method

| Compound | MIC (Staphylococcus aureus [1]) | MIC (Staphylococcus aureus [2]) | MIC (Staphylococcus aureus [3]) | MIC (Staphylococcus aureus [4]) | MIC (Staphylococcus aureus [5]) | MIC [6] | MIC (Enterococcus faecalis [7]) | MIC (Enterococcus faecalis [8]) | MIC (Enterococcus faecium) | MIC (Bacillus subtilis) |
| --- | --- | --- | --- | --- | --- | --- | --- | --- | --- | --- |
| O=C(O)c1ccc(-n2cc(CNc3cc(Cl)c(F)cc3F)c(-c3ccc(F)c(F)c3)n2)cc1 | > 32 µg/mL | > 32 µg/mL | > 32 µg/mL | > 32 µg/mL | > 32 µg/mL | > 32 µg/mL | > 32 µg/mL | > 32 µg/mL | > 32 µg/mL | > 32 µg/mL |
| O=C(O)c1ccc(-n2cc(CNc3cccc(Cl)c3)c(-c3ccc(F)cc3)n2)cc1 | 8 µg/mL (≈ 19 µM) | 4 µg/mL (≈ 9.48 µM) | 4 µg/mL (≈ 9.48 µM) | 16 µg/mL (≈ 37.9 µM) | 8 µg/mL (≈ 19 µM) | 16 µg/mL (≈ 37.9 µM) | 32 µg/mL (≈ 75.9 µM) | 32 µg/mL (≈ 75.9 µM) | 32 µg/mL (≈ 75.9 µM) | 4 µg/mL (≈ 9.48 µM) |
| O=C(O)c1ccc(-n2cc(CNc3ccc(Br)c(C(F)(F)F)c3)c(-c3ccc(F)c(F)c3)n2)cc1 | 0.5 µg/mL (≈ 0.905 µM) | 0.5 µg/mL (≈ 0.905 µM) | 0.5 µg/mL (≈ 0.905 µM) | 0.5 µg/mL (≈ 0.905 µM) | 1 µg/mL (≈ 1.81 µM) | 4 µg/mL (≈ 7.24 µM) | 2 µg/mL (≈ 3.62 µM) | 4 µg/mL (≈ 7.24 µM) | 2 µg/mL (≈ 3.62 µM) | 1 µg/mL (≈ 1.81 µM) |
| O=C(O)c1ccc(-n2cc(CNc3cc(F)c(F)c(F)c3)c(-c3cccc(F)c3)n2)cc1 | 4 µg/mL (≈ 9.06 µM) | 4 µg/mL (≈ 9.06 µM) | 1 µg/mL (≈ 2.27 µM) | 4 µg/mL (≈ 9.06 µM) | 8 µg/mL (≈ 18.1 µM) | 8 µg/mL (≈ 18.1 µM) | 32 µg/mL (≈ 72.5 µM) | 32 µg/mL (≈ 72.5 µM) | 16 µg/mL (≈ 36.2 µM) | 4 µg/mL (≈ 9.06 µM) |
| O=C(O)c1ccc(-n2cc(CNc3ccc(Cl)c(C(F)(F)F)c3)c(-c3ccc(F)c(F)c3)n2)cc1 | 1 µg/mL (≈ 1.97 µM) | 1 µg/mL (≈ 1.97 µM) | 0.5 µg/mL (≈ 0.985 µM) | 2 µg/mL (≈ 3.94 µM) | 2 µg/mL (≈ 3.94 µM) | 4 µg/mL (≈ 7.88 µM) | 4 µg/mL (≈ 7.88 µM) | 4 µg/mL (≈ 7.88 µM) | 2 µg/mL (≈ 3.94 µM) | 0.5 µg/mL (≈ 0.985 µM) |
| O=C(O)c1ccc(-n2cc(CNc3cc(Cl)c(F)c(Cl)c3)c(-c3ccc(F)c(F)c3)n2)cc1 | 1 µg/mL (≈ 2.03 µM) | 0.5 µg/mL (≈ 1.02 µM) | 0.25 µg/mL (≈ 0.508 µM) | 1 µg/mL (≈ 2.03 µM) | 1 µg/mL (≈ 2.03 µM) | 2 µg/mL (≈ 4.06 µM) | 4 µg/mL (≈ 8.13 µM) | 4 µg/mL (≈ 8.13 µM) | 1 µg/mL (≈ 2.03 µM) | 0.5 µg/mL (≈ 1.02 µM) |
| O=C(O)c1ccc(-n2cc(CNc3ccc(C(F)(F)F)cc3)c(-c3ccc(F)c(F)c3)n2)cc1 | 2 µg/mL (≈ 4.22 µM) | 2 µg/mL (≈ 4.22 µM) | 1 µg/mL (≈ 2.11 µM) | 2 µg/mL (≈ 4.22 µM) | 4 µg/mL (≈ 8.45 µM) | 4 µg/mL (≈ 8.45 µM) | > 32 µg/mL | > 32 µg/mL | 8 µg/mL (≈ 16.9 µM) | 1 µg/mL (≈ 2.11 µM) |
| COc1ccc(NCc2cn(-c3ccc(C(=O)O)cc3)nc2-c2ccc(F)cc2)cc1C(F)(F)F | 16 µg/mL (≈ 33 µM) | 16 µg/mL (≈ 33 µM) | 8 µg/mL (≈ 16.5 µM) | 16 µg/mL (≈ 33 µM) | 8 µg/mL (≈ 16.5 µM) | 16 µg/mL (≈ 33 µM) | 32 µg/mL (≈ 65.9 µM) | 32 µg/mL (≈ 65.9 µM) | 32 µg/mL (≈ 65.9 µM) | 8 µg/mL (≈ 16.5 µM) |
| O=C(O)c1ccc(-n2cc(CNc3ccc(Br)cc3)c(-c3cccc(F)c3)n2)cc1 | 4 µg/mL (≈ 8.58 µM) | 8 µg/mL (≈ 17.2 µM) | 4 µg/mL (≈ 8.58 µM) | 16 µg/mL (≈ 34.3 µM) | 16 µg/mL (≈ 34.3 µM) | 16 µg/mL (≈ 34.3 µM) | 32 µg/mL (≈ 68.6 µM) | 32 µg/mL (≈ 68.6 µM) | 16 µg/mL (≈ 34.3 µM) | 4 µg/mL (≈ 8.58 µM) |
| CC(C)(C)c1ccc(NCc2cn(-c3ccc(C(=O)O)cc3)nc2-c2ccc(F)cc2)cc1 | 4 µg/mL (≈ 9.02 µM) | 2 µg/mL (≈ 4.51 µM) | 2 µg/mL (≈ 4.51 µM) | 4 µg/mL (≈ 9.02 µM) | 4 µg/mL (≈ 9.02 µM) | 8 µg/mL (≈ 18 µM) | 8 µg/mL (≈ 18 µM) | 8 µg/mL (≈ 18 µM) | 4 µg/mL (≈ 9.02 µM) | 2 µg/mL (≈ 4.51 µM) |
| O=C(O)c1ccc(-n2cc(CNc3cc(Cl)cc(Cl)c3)c(-c3cccc(F)c3)n2)cc1 | 2 µg/mL (≈ 4.38 µM) | 1 µg/mL (≈ 2.19 µM) | 1 µg/mL (≈ 2.19 µM) | 1 µg/mL (≈ 2.19 µM) | 4 µg/mL (≈ 8.77 µM) | – | 8 µg/mL (≈ 17.5 µM) | – | – | 1 µg/mL (≈ 2.19 µM) |
| O=C(O)c1ccc(-n2cc(CNc3cccc(F)c3)c(-c3ccc(F)cc3)n2)cc1 | 16 µg/mL (≈ 39.5 µM) | 32 µg/mL (≈ 78.9 µM) | 16 µg/mL (≈ 39.5 µM) | 16 µg/mL (≈ 39.5 µM) | 16 µg/mL (≈ 39.5 µM) | 32 µg/mL (≈ 78.9 µM) | > 32 µg/mL | > 32 µg/mL | > 32 µg/mL | 8 µg/mL (≈ 19.7 µM) |
| O=C(O)c1ccc(-n2cc(CNc3cc(F)c(F)c(F)c3)c(-c3ccc(F)cc3)n2)cc1 | 32 µg/mL (≈ 72.5 µM) | > 32 µg/mL | > 32 µg/mL | > 32 µg/mL | > 32 µg/mL | > 32 µg/mL | > 32 µg/mL | > 32 µg/mL | > 32 µg/mL | 4 µg/mL (≈ 9.06 µM) |
| O=C(O)c1ccc(-n2cc(CNc3ccc(Br)c(Cl)c3)c(-c3cccc(F)c3)n2)cc1 | – | 1 µg/mL (≈ 2 µM) | 1 µg/mL (≈ 2 µM) | 1 µg/mL (≈ 2 µM) | 2 µg/mL (≈ 3.99 µM) | 4 µg/mL (≈ 7.99 µM) | 8 µg/mL (≈ 16 µM) | 4 µg/mL (≈ 7.99 µM) | 4 µg/mL (≈ 7.99 µM) | 1 µg/mL (≈ 2 µM) |
